{"source": "paper PMC4370505", "about": "(PLoS ONE, 2015)", "key": {"[1]": {"test": "In vitro metabolism in rat liver microsomes with UDPA", "format": "in vitro ADME", "settings": "rat liver microsomes with UGT reaction mixture, 37°C", "experimental": "Incubations of test substances in reaction mixtures without microsomes were used as a control. All samples were protected against light during the experiments."}, "[2]": {"settings": "cited from earlier work"}, "[3]": {"test": "Single dose intravenous pharmacokinetic study in Wistar rats", "format": "in vivo", "settings": "10 mg/kg", "experimental": "Pharmacokinetic studies were conducted with male Wistar rats. Rats were acclimatized and housed at 22°C under 12h light/dark cycle with free access to sterilized commercial food pellets and water in the animal research facility (Curtin University) for at least 3 days prior to experiments. All animal experiments were approved by the Animal Ethics Committee of Curtin University (Approval no: R37–10 Amendment Approval No: A47–10 and A56–10) and were performed according to the Australian Code of Practice for the care and use of animals for scientific purposes. In order to minimize pain and suffering, the dosing and bleeding procedures were conducted under anesthesia (isoflurane at 5% for the induction and 2% for the maintenance, in combination with 1.5% oxygen). At the end of the study, rats were scarified by anesthetic euthanasia using 5% isofluorane with 1.5% oxygen. […] Blood (300 μL) was collected from the tail vein at 0.08, 0.5, 1, 2 and 4 hours into EDTA coated tubes. The blood samples were immediately stored in ice and protected from light until centrifuged (12000 × g at 4°C for 10 min). […] Metabolites were identified using LC-MS/MS (Applied Biosystems, 4000 QTRAP, Toronto, Canada).\nData analysis and representation (mean ± SD) were performed with SigmaPlot version 12 (Systat Software, Inc., Chicago, IL). Pharmacokinetic analysis was performed using Kinetica Version 5.0 (Thermo Fisher Scientific, Inc., Waltham, MA). Non compartmental analysis of the plasma concentration-time data was used to estimate the area under the curve (AUC0-∞; log-linear trapezoidal method), elimination half-life (t½), apparent clearance (CL; Dose÷AUC0-∞), mean residence time (MRT) and volume of distribution (Vss; CL×MRT). Statistical analysis of pharmacokinetic parameters was performed using unpaired t-test with Graphpad Prism software (version 6.05). Pharmacokinetic parameters obtained for each group were analyzed against the resveratrol group and p values were reported."}, "[4]": {"parameters": "method as in PMID 18501919", "settings": "cited from earlier work"}, "[5]": {"test": "Behaviour of conjugates in aqueous solution (solubility / self-aggregation)", "format": "physicochemical", "settings": "up to 10 mg/mL", "experimental": "A solution of 40 mg of MeO-PEG-PLAO-Succ-RSV conjugate in acetonitrile (2 mL) was prepared. The stock solution was diluted with water (4 mL). The acetonitrile was removed by bubbling inert nitrogen gas at room temperature in the dark. The final volume of micellar/nanoparticle dispersion was adjusted to the required volume with water. For pharmacokinetic studies, final concentration of conjugate in micelle dispersion was 10 mg/mL and for critical micellear concentration measurement, the dispersion was diluted accordingly to obtain a series concentration of conjugate in solution below and above the CMC. The micelles of MeO-PEGO-Succ-RSV were formed spontaneously after dispersing in water."}, "[6]": {"test": "Stability of resveratrol-polymer conjugates in physiological relevant buffers", "format": "physicochemical", "settings": "phosphate buffer 0.1M pH 7.4, 37°C", "experimental": "Briefly, reversed phase chromatographic separation was employed for analysis with xxx column. The HPLC gradient system consisted of solvent A, buffer pH 7.0 with triethyl amine-formic acid (0.05 and 0.2% v/v in water) and solvent B, methanol. A 30 min linear gradient was programmed as follows: 0 min 5% B, 4 min 20% B, 7 min 20% B, 16 min 55% B, 18 min 55% B, 18.5 min 95% B, 23 min 95% B, 24 min 5% B. The flow rate was maintained at 1 mL/min and the injection volume was 50 μL. The HPLC analysis was performed at ambient temperature. Altech Apollo C18 150 X 4.6 mm, 5μ column was employed for seperation. This HPLC method was validated to precisely separate and quantify the trans-resveratrol in the analyte mixture. There was at least two min difference in retention times for the trans and cis isomers of resveratrol. The UV spectrum of the trans isomer is very different from the cis isomer, thus any change to the trans isomer could have been detected. Although quantification was performed using the fluorescence detector at an excitation wavelength of 320nm and emission at 400 nm, simultaneous UV chromatograms were also recorded for specificity and peak purity purposes.\nA similar procedure was used to study the stability of MeO-PEG-PLAO-Succ-RSV in buffers; micelles were prepared as per section 2.8 and diluted 1:5 with buffer solutions and incubated at 37°C. […]"}, "[7]": {"test": "Stability of resveratrol-polymer conjugates in rat plasma", "format": "in vitro ADME", "settings": "37°C", "experimental": "The MeO-PEGN-Succ-RSV, 2 kDa, 20 kDa and MeO-PEGO-Succ-RSV 2 kDa (MW quoted in the paper is the size of polymer only. Mw for RSV is 228 Da) at the 10 mg/mL were incubated in plasma at 37°C. […] Aliquots of plasma (0.1 mL) were withdrawn at regular intervals and mixed with acetonitrile (0.9 mL). The mixtures were centrifuged at 10,000 rpm for 5 minutes. The supernatant (0.25 mL) was diluted with water (0.25 mL) and analysed by HPLC [28]. All samples were protected against light during the experiments."}, "[8]": {"test": "DPPH inhibition assay (in vitro antioxidant)", "format": "biochemical", "settings": "DPPH 1 x 10^-4M in methanol, 30 min, room temperature", "experimental": "Final concentration of DPPH was maintained at 1 x 10^-4M. […] After 30 min incubation at room temperature, the absorbance of these solutions was determined at 518 nm using a Hewlett Packard 8452A, UV-VIS spectrophotometer (Waldbronn, Germany). […] The IC 50 values were determined from the plot of % DPPH remaining against concentration of RSV and its equivalent conjugates."}, "[9]": {"settings": "male, Wistar, rat, plasma, mean ± SD"}}}
{"compound": "Oc1ccc(/C=C/c2cc(O)cc(O)c2)cc1", "note": "[Resveratrol, trans-Resveratrol]", "values": [{"measurement": "Time within which almost all was metabolized", "setting": "[1]", "value": "≤ 10", "unit": "min"}, {"measurement": "CL (previous reports)", "setting": "[2]", "value": "183 to 317", "unit": "mL/min/kg"}, {"measurement": "t½ (previous reports)", "setting": "[2]", "value": 1.3, "unit": "h"}, {"measurement": "Plasma concentration after two hours", "setting": "[3]", "value": "below the limit of detection"}, {"measurement": "CL", "setting": "[3]; mean ± SD", "value": "335 ± 140", "unit": "mL/min/kg"}, {"measurement": "AUC(0-inf)", "setting": "[3]; [9]", "value": "2.4 ± 0.7", "unit": "µM·h"}, {"measurement": "MRT", "setting": "[3]; [9]", "value": "1.3 ± 1", "unit": "h"}, {"measurement": "Vd", "setting": "[3]; male, Wistar, rat, plasma, mean ± SD, read-out: Vss", "value": "26.8 ± 19.1", "unit": "L/kg"}, {"measurement": "half-life", "setting": "[3]; male, Wistar, rat, plasma, mean ± SD, read-out: t½ (converted)", "value": "1.4 ± 0.9", "unit": "h"}, {"measurement": "clearance", "setting": "[3]; male, Wistar, rat, plasma, iv, mean ± SD", "value": 333, "unit": "mL/min/kg"}]}
{"compound": "CN(C)c1ccc(/N=N/c2ccccc2)cc1", "note": "[dimethyl yellow]", "values": [{"measurement": "Aqueous solubility", "setting": "[4]", "value": 13, "unit": "µg/mL"}]}
{"compound": "MeO-PEG succinyl ester resveratrol [MeO-PEGO-Succ-RSV 2 kDa]", "values": [{"measurement": "Behaviour in aqueous solution", "setting": "[5]", "value": "self-aggregated into polymeric micelles"}, {"measurement": "% Conjugate Remaining at 24 hr pH 7.4", "setting": "[6]", "value": "~65", "unit": "%"}, {"measurement": "Plasma t1/2", "setting": "[7]; rat plasma in vitro", "value": "<5", "unit": "min"}, {"measurement": "Intact conjugate detected by HPLC at initial time point", "setting": "[7]; rat plasma, initial time point of 0 h", "value": "almost no intact polymer conjugate was detected"}]}
{"compound": "α-methoxy poly(ethylene glycol)-co-polylactide succinyl ester resveratrol [MeO-PEG-PLAO-Succ-RSV 2 kDa]", "values": [{"measurement": "IC 50 DPPH inhibition", "setting": "[8]", "value": "similar"}]}
{"compound": "α-methoxy-ω-carboxylic acid poly(ethylene glycol) succinylamide resveratrol [MeO-PEGN-Succ-RSV 2 kDa]", "values": [{"measurement": "IC 50 DPPH inhibition", "setting": "[8]", "value": "similar"}]}
